Reference: patent US7935708B2, “Dihydropyrazolopyrimidinone derivatives” (MSD K.K., priority 2006, dated 2011)

Legend:
[1] = tested on: Cdc2 (Cdk1) tyrosine 15 phosphorylation in NCI-H1299 cells; assay: Cdc2 (Cdk1) tyrosine 15-phosphorylation-inhibitory effect in camptothecin-treated NCI-H1299 cells (ELISA); type: cell-based; conditions: Homo sapiens, camptothecin 200 nM 16 hours, then test compound with nocodazole 8 hours, read-out: Cdc2-Y15 Phosphorylation-Inhibitory Effect (H1299, + camptothecin) (EC50)
Text: (§1) Pharmaceutical Text 2 (Method of Determining Drug Potency in Cells (Cdc2 (Cdk1) Tyrosine 15-Phosphorylation-Inhibitory Effect))
(§2) Fetal bovine serum (FBS) was obtained from Morgate; media RPMI1640 and DMEM were from Invitrogen; camptothecin was from Sigma; gemcitabine was from Nippon Eli Lilly; nocodazole and protease inhibitor cocktail were from Sigma; rabbit anti-Cdc2 antibody and mouse anti-Cdc2 antibody were from Santa Cruz Biotechnology; rabbit anti-tyrosine 15-phosphorylated Cdc2 antibody and horseradish peroxidase-labeled anti-mouse IgG antibody were from Cell Signaling Technology; sure blue reserve TMB peroxidase substrate was from Kirkegaard and Perry Laboratories.
(§3) Human non-small cell lung cancer cells (NCI-H1299) and human colon cancer cells (WiDr) were obtained from American Type Culture Collection (ATCC).
(§4) c) Method of Effect Determination:
In the method of using NCI-H1299 cells, the cells were suspended in RPMI1640 containing 10% FBS, and the cell suspension was applied to a 96-well Nunclondelta-processed plastic plate (bought from Nunc), in an amount of 2000 cells/100 μL/well, in which the cells were incubated overnight in 5% CO2-95% air at 37° C. Camptothecin was dissolved in dimethylsulfoxide (DMSO), and diluted with RPMI1640 containing 10% FBS, and then this was applied to the plate on which the cells had been previously sowed, in an amount of 50 μL/well in such a manner that the final concentration of camptothecin could be 200 nM. Then, the cells were incubated for 16 hours at 37° C. in 5% CO2-95% air. The test compound was stepwise diluted with DMSO, then diluted with 4000 nM nocodazole-containing RPMI1640 containing 10% FBS, and applied to the plate on which the camptothecin-treated cells had been sowed, in an amount of 50 μL/well. The cells were incubated for 8 hours at 37° C. in 5% CO2-95% air, then the medium was removed, and a cytolytic buffer was added to the plate in an amount of 100 μL/well, shaken at 4° C. for 2 hours, then frozen at −80° C., and melted to give a cell solution. Cdc2 and tyrosine 15-phosphorylated Cdc2 in the cell solution were determined through enzyme-linked immunosorbent assay (ELISA), and the ratio of tyrosine 15-phosphorylated Cdc2 to Cdc2 was calculated to obtain the 50% phosphorylation-inhibitory concentration of the test compound to the cells (EC50, nM). The cytolytic buffer used herein is an aqueous solution containing 20 mM Hepes (pH 7.5), 150 mM sodium chloride, 1 mM disodium ethylenediaminetetraacetate, 0.1% polyoxyethylene (10) octylphenyl ether, 1% protease inhibitor cocktail, 1 mM dithiothreitol, 2 mM sodium orthovanadate, 10 mM sodium fluoride and 10 mM glycerol diphosphate. Cdc2 was determined through ELISA as follows: A rabbit anti-Cdc2 antibody solution, which had been diluted 200-fold with 50 mM carbonate-bicarbonate buffer (pH 9.6), was applied to a 96-well maxisorpimmuno plate (bought from Nunc), in an amount of 50 μL/well, and statically kept overnight at 4° C. so as to fix the antibody on the plate. Next, this was washed three times with phosphate-buffered saline (PBS), and 5% bovine serum albumin-containing PBS (5% BSA/PBS) was added thereto in an amount of 300 μL/well, and statically kept at room temperature for 2 hours, and then again washed three times with PBS. A mouse anti-Cdc2 antibody solution that had been diluted 100-fold with 0.05% polyoxyethylene sorbitan monolaurate and 1% BSA-containing Tris-HCl-buffered saline (1% BSA/TBS-T) was added to it in an amount of 50 μL/well, and the cell solution was added thereto in an amount of 5 μL/well and statically kept overnight at 4° C. Next, this was washed three times with 0.05% polyoxyethylene sorbitan monolaurate and 0.1% BSA-containing Tris-HCl-buffered saline (0.1% BSA/TBS-T), and then a horseradish peroxidase-labeled anti-mouse IgG antibody solution that had been diluted 2000-fold with 1% BSA/TBS-T was added thereto in an amount of 70 μL/well, and statically kept at room temperature for 3 hours. […]

[2] = tested on: Cdc2 (Cdk1) tyrosine 15 phosphorylation in WiDr cells; assay: Cdc2 (Cdk1) tyrosine 15-phosphorylation-inhibitory effect in gemcitabine-treated WiDr cells (ELISA); type: cell-based; conditions: Homo sapiens, gemcitabine 100 nM 24 hours, then test compound with nocodazole 8 hours, read-out: Cdc2-Y15 Phosphorylation-Inhibitory Effect (WiDr, + gemcitabine) (EC50)
Text: as §1, §2, §3, §4
In the method of using WiDr cells, the cells were suspended in DMEM containing 10% FBS, and the cell suspension was applied to a 96-well Nunclondelta-processed plastic plate in an amount of 2000 cells/100 μL/well, in which the cells were incubated overnight in 5% CO2-95% air at 37° C. Gemcitabine was dissolved in PBS, and diluted with DMEM containing 10% FBS, and then this was applied to the plate on which the cells had been previously sowed, in an amount of 50 μL/well in such a manner that the final concentration of gemcitabine could be 100 nM. Then, the cells were incubated for 24 hours at 37° C. in 5% CO2-95% air. The test compound was stepwise diluted with DMSO, then diluted with 1200 nM nocodazole-containing DMEM containing 10% FBS, and applied to the plate on which the gemcitabine-treated cells had been sowed, in an amount of 50 μL/well. The cells were incubated for 8 hours at 37° C. in 5% CO2-95% air, then the culture was removed, and a cytolytic buffer was added to the plate in an amount of 100 μL/well, shaken at 4° C. for 2 hours, then frozen at −80° C., and melted to give a cell solution. Cdc2 and tyrosine 15-phosphorylated Cdc2 in the cell solution were determined through ELISA, and the ratio of tyrosine 15-phosphorylated Cdc2 to Cdc2 was calculated to obtain the 50% phosphorylation-inhibitory concentration of the test compound to the cells (EC50, nM). Cdc2 was determined through ELISA as follows: A rabbit anti-Cdc2 antibody solution, which had been diluted 200-fold with 50 mM carbonate-bicarbonate buffer (pH 9.6), was applied to a 96-well maxisorp plastic plate in an amount of 50 μL/well, and statically kept overnight at 4° C. so as to fix the antibody on the plate. Next, this was washed three times with PBS, and 5% BSA/PBS was added thereto in an amount of 300 μL/well, and statically kept at room temperature for 2 hours, and then again washed three times with PBS. A mouse anti-Cdc2 antibody solution that had been diluted 100-fold with 1% BSA/TBS-T was added to it in an amount of 50 μL/well, and the cell solution was added thereto in an amount of 10 μL/well and statically kept overnight at 4° C. Next, this was washed three times with 0.1% BSA/TBS-T, and then a horseradish peroxidase-labeled anti-mouse IgG antibody solution that had been diluted 2000-fold with 1% BSA/TBS-T was added thereto in an amount of 70 μL/well, and statically kept at room temperature for 3 hours. Finally, this was washed five times with 0.1% BSA/TBS-T, then a substrate of sure blue reserve TMB peroxidase was added to it in an amount of 100 μL/well, and left for coloration in a dark place at room temperature for 15 minutes. Then, 1 M hydrochloric acid was added to it in an amount of 100 μL/well to stop the reaction, and this was analyzed through colorimetry. […]

Row | EC50 [1] [nM] | EC50 [2] [nM] | Compound
1 | 61 | 130 | C=CCn1c(=O)c2cnc(Nc3ccc(N4CCN(C)CC4)c(CO)c3)nc2n1-c1ccsc1 [Example 3, 2-allyl-6-{[3-(hydroxymethyl)-4-(4-methylpiperazin-1-yl)phenyl]amino}-1-(3-thienyl)-1,2-dihydro-3H-pyrazolo[3,4-d]pyrimidin-3-one]
2 | 79 | 86 | C=CCn1c(=O)c2cnc(Nc3ccc(N4CCN(C)CC4)cc3)nc2n1-c1cccc(N2CCN(C)C2=O)n1 [Example 148, 2-allyl-1-[6-(3-methyl-2-oxoimidazolidin-1-yl)pyridin-2-yl]-6-{[4-(4-methylpiperazin-1-yl)phenyl]amino}-1,2-dihydro-3H-pyrazolo[3,4-d]pyrimidin-3-one]
